Test results: patent publication US11566022B2, “3-(5-methoxy-1-oxoisoindolin-2-yl)piperidine-2,6-dione derivatives and uses thereof” (NOVARTIS AG, priority 2019, dated 2023)
Like-named read-outs stand apart in the source and are kept apart here.

Biological target: HiBit-WIZ fusion protein (Homo sapiens, UniProt O95785+Q96SW2)
Experiment: Quantification of WIZ protein levels in HiBit tag fusion protein assay (WIZ HiBit assay in 293T cells)
Type: cell-based
Design: Dmax: dose or concentration left out as unconfirmed
Conditions: for remaining activity at up to 25 µM: DMSO-normalized, curve-fitted percentage of WIZ-HiBit remaining at 25 uM, read-out: WIZ Amax; for DC50: WIZ HiBit assay in 293T cells, 10-point, 5-fold dose response, highest concentration 25 μM, about 18 hours, read-out: WIZ AC50
[1] = HEK-293T, 100 minus Amax, 293T cells, read-out: % degradation of WIZ (100-Amax)

Chain of HiBit-WIZ fusion protein (O95785 whole entry, the tested form may be a part): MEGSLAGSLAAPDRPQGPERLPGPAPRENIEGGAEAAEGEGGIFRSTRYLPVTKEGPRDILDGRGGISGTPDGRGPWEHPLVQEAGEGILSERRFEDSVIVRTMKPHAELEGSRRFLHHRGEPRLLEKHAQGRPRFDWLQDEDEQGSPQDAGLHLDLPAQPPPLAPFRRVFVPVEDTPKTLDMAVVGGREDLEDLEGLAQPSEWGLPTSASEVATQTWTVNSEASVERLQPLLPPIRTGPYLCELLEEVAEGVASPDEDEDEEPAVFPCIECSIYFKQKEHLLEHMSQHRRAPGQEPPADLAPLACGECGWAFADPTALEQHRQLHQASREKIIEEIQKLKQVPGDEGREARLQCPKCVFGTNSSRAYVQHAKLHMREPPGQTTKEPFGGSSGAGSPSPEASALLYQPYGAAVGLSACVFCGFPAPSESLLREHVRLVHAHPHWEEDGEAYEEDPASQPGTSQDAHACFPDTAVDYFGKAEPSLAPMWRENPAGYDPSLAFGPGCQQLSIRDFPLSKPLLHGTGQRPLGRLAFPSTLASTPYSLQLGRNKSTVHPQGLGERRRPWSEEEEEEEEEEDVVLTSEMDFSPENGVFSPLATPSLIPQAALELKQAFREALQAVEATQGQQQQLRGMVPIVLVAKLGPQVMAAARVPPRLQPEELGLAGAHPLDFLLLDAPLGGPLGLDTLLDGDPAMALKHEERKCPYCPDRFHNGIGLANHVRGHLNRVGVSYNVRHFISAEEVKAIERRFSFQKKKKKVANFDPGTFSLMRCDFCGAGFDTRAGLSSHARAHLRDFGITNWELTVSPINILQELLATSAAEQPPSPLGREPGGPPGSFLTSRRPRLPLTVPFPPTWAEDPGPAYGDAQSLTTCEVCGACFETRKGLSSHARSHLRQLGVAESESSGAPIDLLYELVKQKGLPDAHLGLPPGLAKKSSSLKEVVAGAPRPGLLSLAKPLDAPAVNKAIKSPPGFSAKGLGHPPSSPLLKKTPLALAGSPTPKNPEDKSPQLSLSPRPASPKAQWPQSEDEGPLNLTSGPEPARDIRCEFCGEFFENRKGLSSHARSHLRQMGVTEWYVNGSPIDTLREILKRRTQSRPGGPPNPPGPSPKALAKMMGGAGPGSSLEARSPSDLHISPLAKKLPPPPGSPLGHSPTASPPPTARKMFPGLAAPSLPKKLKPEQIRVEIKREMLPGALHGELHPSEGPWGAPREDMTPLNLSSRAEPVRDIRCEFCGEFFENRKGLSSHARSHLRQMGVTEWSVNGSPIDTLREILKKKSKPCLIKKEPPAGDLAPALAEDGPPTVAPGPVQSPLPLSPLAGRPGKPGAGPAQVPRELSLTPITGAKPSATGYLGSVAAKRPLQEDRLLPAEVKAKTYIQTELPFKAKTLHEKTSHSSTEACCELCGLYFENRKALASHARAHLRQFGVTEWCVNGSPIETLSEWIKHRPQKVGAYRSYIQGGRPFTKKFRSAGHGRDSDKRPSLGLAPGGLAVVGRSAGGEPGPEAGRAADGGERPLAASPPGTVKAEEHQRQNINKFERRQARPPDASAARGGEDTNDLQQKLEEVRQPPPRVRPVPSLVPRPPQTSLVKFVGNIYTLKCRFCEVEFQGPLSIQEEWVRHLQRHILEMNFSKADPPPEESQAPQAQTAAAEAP
Chain of HiBit-WIZ fusion protein (Q96SW2 whole entry, the tested form may be a part): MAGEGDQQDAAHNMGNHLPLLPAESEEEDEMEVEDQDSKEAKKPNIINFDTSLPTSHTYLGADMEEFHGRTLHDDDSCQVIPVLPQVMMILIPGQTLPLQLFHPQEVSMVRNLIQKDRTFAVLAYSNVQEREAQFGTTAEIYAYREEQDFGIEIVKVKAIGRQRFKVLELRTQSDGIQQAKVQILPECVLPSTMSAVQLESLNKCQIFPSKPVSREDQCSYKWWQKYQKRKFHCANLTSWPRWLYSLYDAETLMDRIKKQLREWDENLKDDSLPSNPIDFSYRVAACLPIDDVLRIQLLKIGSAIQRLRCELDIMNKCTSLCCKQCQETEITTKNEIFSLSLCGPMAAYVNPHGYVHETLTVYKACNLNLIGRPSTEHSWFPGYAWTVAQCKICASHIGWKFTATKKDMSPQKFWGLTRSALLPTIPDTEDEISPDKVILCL
Chain of HiBit-WIZ fusion protein (Q16531 whole entry partner, the tested form may be a part): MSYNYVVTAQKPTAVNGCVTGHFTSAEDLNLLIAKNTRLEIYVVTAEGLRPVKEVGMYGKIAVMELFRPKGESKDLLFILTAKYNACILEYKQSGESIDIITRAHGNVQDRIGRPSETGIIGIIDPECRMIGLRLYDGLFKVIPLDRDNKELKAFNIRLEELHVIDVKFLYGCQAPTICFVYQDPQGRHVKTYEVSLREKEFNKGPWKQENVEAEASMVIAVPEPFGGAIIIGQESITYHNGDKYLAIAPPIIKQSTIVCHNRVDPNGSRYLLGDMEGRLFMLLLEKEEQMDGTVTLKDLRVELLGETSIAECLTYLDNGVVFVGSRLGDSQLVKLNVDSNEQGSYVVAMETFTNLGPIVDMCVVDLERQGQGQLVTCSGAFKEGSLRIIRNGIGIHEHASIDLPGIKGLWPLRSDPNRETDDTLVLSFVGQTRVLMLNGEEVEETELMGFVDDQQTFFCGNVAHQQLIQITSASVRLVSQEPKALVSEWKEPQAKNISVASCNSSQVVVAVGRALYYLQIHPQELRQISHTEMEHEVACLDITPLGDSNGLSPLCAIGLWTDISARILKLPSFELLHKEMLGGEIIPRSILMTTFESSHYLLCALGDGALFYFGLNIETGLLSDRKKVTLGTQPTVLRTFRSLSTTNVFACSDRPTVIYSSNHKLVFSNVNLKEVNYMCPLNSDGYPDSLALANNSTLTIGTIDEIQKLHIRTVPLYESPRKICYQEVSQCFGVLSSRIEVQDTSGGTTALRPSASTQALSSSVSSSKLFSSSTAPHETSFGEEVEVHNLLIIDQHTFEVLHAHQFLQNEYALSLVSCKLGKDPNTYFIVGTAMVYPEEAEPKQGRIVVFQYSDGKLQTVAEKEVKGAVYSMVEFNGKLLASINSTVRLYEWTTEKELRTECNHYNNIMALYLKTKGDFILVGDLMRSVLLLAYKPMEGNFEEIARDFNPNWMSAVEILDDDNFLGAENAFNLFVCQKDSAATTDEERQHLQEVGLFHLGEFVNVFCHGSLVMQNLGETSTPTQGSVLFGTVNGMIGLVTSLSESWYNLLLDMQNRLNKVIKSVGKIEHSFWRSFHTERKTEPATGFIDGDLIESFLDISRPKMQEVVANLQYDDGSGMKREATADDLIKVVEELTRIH

Dmax [1]	remaining activity at up to 25 µM (HEK-293T, 293T cells)	DC50	SMILES	Dmax (HEK-293T, read-out: % degradation of WIZ (100-Amax), 100 minus Amax, 293T cells)	remaining activity (HEK-293T, read-out: WIZ Amax, DMSO-normalized, curve-fitted percentage of WIZ-HiBit remaining at 25 uM, 293T cells)
22.9%	77.1%	> 25000 nM	CCc1ocnc1C(=O)N1CCCC[C@H]1COc1ccc2c(c1)CN(C1CCC(=O)NC1=O)C2=O (some centres unmarked) [Compound I-72ah]	–	–
96.8%	3.2%	89 nM	Cc1noc(C)c1CN1CCCC[C@H]1COc1ccc2c(c1)CN(C1CCC(=O)NC1=O)C2=O (some centres unmarked) [Compound I-50ao]	–	–
67.2%	32.9%	150 nM	CCN1CCN(c2ccc(CN3CCCC[C@@H]3COc3ccc4c(c3)CN(C3CCC(=O)NC3=O)C4=O)cn2)CC1 (stereo partly drawn) [Compound I-191, 3-(5-(((R)-1-((6-(4-ethylpiperazin-1-yl)pyridin-3-yl)methyl)piperidin-2-yl)methoxy)-1-oxoisoindolin-2-yl)piperidine-2,6-dione]	–	–
96.6%	3.4%	19 nM	Cn1ccc2c(CN3CCCC[C@@H]3COc3ccc4c(c3)CN(C3CCC(=O)NC3=O)C4=O)cccc21 (some centres unmarked) [Compound I-50dy]	–	–
56.8%	43.2%	18300 nM	Cc1nc(-c2cccc(CN3CCCC[C@H]3COc3ccc4c(c3)CN(C3CCC(=O)NC3=O)C4=O)c2)no1 (some centres unmarked) [Compound I-50bb]	–	–
78.7%	21.3%	20 nM	O=C1CCC(N2Cc3cc(OC[C@H]4CCCCN4Cc4cccc5c4NCCO5)ccc3C2=O)C(=O)N1 (stereo partly drawn) [Compound I-178, 3-(5-(((R)-1-((3,4-dihydro-2H-benzo[b][1,4]oxazin-5-yl)methyl)piperidin-2-yl)methoxy)-1-oxoisoindolin-2-yl)piperidine-2,6-dione]	–	–
99%	1%	8 nM	CC(C)Cn1cc(CN2CCCC[C@@H]2COc2ccc3c(c2)CN(C2CCC(=O)NC2=O)C3=O)cn1 (some centres unmarked) [Compound I-50dw]	–	–
65.2%	34.8%	3530 nM	N#Cc1cccc(Cn2cccc(CN3CCCC[C@@H]3COc3ccc4c(c3)CN(C3CCC(=O)NC3=O)C4=O)c2=O)c1 (some centres unmarked) [Compound I-50cp]	–	–
70.5%	29.5%	29 nM	COC12CC(CN3CCCC[C@@H]3COc3ccc4c(c3)CN(C3CCC(=O)NC3=O)C4=O)(C1)C2 (stereo partly drawn) [Compound I-163, 3-(5-(((R)-1-((3-methoxybicyclo[1.1.1]pentan-1-yl)methyl)piperidin-2-yl)methoxy)-1-oxoisoindolin-2-yl)piperidine-2,6-dione]	–	–
71.8%	28.2%	2570 nM	Cc1noc(-c2ccc(C(=O)N3CCCC[C@H]3COc3ccc4c(c3)CN(C3CCC(=O)NC3=O)C4=O)cc2)n1 (some centres unmarked) [Compound I-72ar]	–	–
55.7%	44.3%	490 nM	O=C1CCC(N2Cc3cc(OC[C@H]4CCCCN4Cc4ccc5[nH]cnc5c4)ccc3C2=O)C(=O)N1 (some centres unmarked) [Compound I-193]	–	–
34.4%	65.6%	> 25000 nM	COc1cc(C#N)ccc1CN1CCCC[C@H]1COc1ccc2c(c1)CN(C1CCC(=O)NC1=O)C2=O (some centres unmarked) [Compound I-50r]	–	–
11.3%	88.7%	> 25000 nM	CC(C)Oc1ccccc1C(=O)N1CCCC[C@H]1COc1ccc2c(c1)CN(C1CCC(=O)NC1=O)C2=O (some centres unmarked) [Compound I-72jy]	–	–
69.7%	30.3%	3740 nM	Cc1nc2ccccn2c1CN1CCCC[C@@H]1COc1ccc2c(c1)CN(C1CCC(=O)NC1=O)C2=O (some centres unmarked) [Compound I-50cd]	–	–
81%	19%	651 nM	CC(C)N1CCC(CN2CCCC[C@@H]2COc2ccc3c(c2)CN(C2CCC(=O)NC2=O)C3=O)CC1 (some centres unmarked) [Compound I-50ea]	–	–
13.3%	86.7%	> 25000 nM	O=C1CCC(N2Cc3cc(OC[C@@H]4CCCCN4C(=O)c4ccccc4OC(F)(F)F)ccc3C2=O)C(=O)N1 (some centres unmarked) [Compound I-72dv]	–	–
83.2%	16.8%	306 nM	CC(C)Cn1cc(CN2CCCC[C@H]2COc2ccc3c(c2)CN(C2CCC(=O)NC2=O)C3=O)cn1 (some centres unmarked) [Compound I-50ci]	–	–
0.4%	99.6%	–	COC1CCC(CN2CCCCC2C(C)Oc2ccc3c(c2)CN(C2CCC(=O)NC2=O)C3=O)CC1 (centres unmarked) [Compound I-217, 3-(5-(1-(1-((4-methoxycyclohexyl)methyl)piperidin-2-yl)ethoxy)-1-oxoisoindolin-2-yl)piperidine-2,6-dione]	–	–
21%	79%	> 25000 nM	CCc1cc(C(=O)N2CCCC[C@H]2COc2ccc3c(c2)CN(C2CCC(=O)NC2=O)C3=O)on1 (some centres unmarked) [Compound I-72ek]	–	–

Dmax [1]	remaining activity at up to 25 µM (HEK-293T, 293T cells)	DC50	SMILES	Dmax (HEK-293T, read-out: % degradation of WIZ (100-Amax), 100 minus Amax, 293T cells)	remaining activity (HEK-293T, read-out: WIZ Amax, DMSO-normalized, curve-fitted percentage of WIZ-HiBit remaining at 25 uM, 293T cells)
43.9%	56.1%	> 25000 nM	O=C1CCC(N2Cc3cc(OC[C@H]4CCCCN4Cc4cncnc4)ccc3C2=O)C(=O)N1 (some centres unmarked) [Compound I-50ce]	–	–
71.8%	28.2%	757 nM	CNc1ncccc1CN1CCCC[C@@H]1COc1ccc2c(c1)CN(C1CCC(=O)NC1=O)C2=O (some centres unmarked) [Compound I-50cj]	–	–
14.9%	85.1%	> 25000 nM	CC(C)c1ccccc1C(=O)N1CCCC[C@H]1COc1ccc2c(c1)CN(C1CCC(=O)NC1=O)C2=O (some centres unmarked) [Compound I-72gi]	–	–
10.2%	89.8%	> 25000 nM	O=C1CCC(N2Cc3cc(OC[C@@H]4CCCCN4C(=O)CCN4CCOCC4)ccc3C2=O)C(=O)N1 (some centres unmarked) [Compound I-72ca]	–	–
70.1%	29.9%	1500 nM	O=C1CCC(N2Cc3cc(OC[C@H]4CCCCN4Cc4ccc(N5CCN(C6CCOCC6)CC5)cc4)ccc3C2=O)C(=O)N1 (stereo partly drawn) [Compound I-109, 3-(1-oxo-5-(((R)-1-(4-(4-(tetrahydro-2H-pyran-4-yl)piperazin-1-yl)benzyl)piperidin-2-yl)methoxy)isoindolin-2-yl)piperidine-2,6-dione]	–	–
35%	65%	> 25000 nM	CC(C)c1cc(C(=O)N2CCCC[C@H]2COc2ccc3c(c2)CN(C2CCC(=O)NC2=O)C3=O)no1 (some centres unmarked) [Compound I-72cf]	–	–
21.2%	78.8%	> 25000 nM	O=C1CCC(N2Cc3cc(OC[C@@H]4CC(F)(F)CN4)ccc3C2=O)C(=O)N1 (stereo partly drawn) [Compound I-84, 3-(5-(((S)-4,4-difluoropyrrolidin-2-yl)methoxy)-1-oxoisoindolin-2-yl)piperidine-2,6-dione]	–	–
25.8%	74.2%	> 25000 nM	O=C1CCC(N2Cc3cc(OC[C@@H]4CCCCN4Cc4cc(Cl)ccc4O)ccc3C2=O)C(=O)N1 (some centres unmarked) [Compound I-50bj]	–	–
76.2%	23.8%	897 nM	O=C1CCC(N2Cc3cc(OC[C@@H]4CCCCN4Cc4ccnc(N5CCOCC5)c4)ccc3C2=O)C(=O)N1 (some centres unmarked) [Compound I-50bn]	–	–
81.1%	18.9%	0.73 nM	O=C1CCC(N2Cc3cc(OC[C@H]4CCCCN4Cc4ccc(N5CCN(C6CC6)CC5)cc4)ccc3C2=O)C(=O)N1 (stereo partly drawn) [Compound I-233, 3-(5-(((R)-1-(4-(4-cyclopropylpiperazin-1-yl)benzyl)piperidin-2-yl)methoxy)-1-oxoisoindolin-2-yl)piperidine-2,6-dione]	–	–
21.2%	78.8%	> 25000 nM	N#Cc1cc(CN2CCCC[C@@H]2COc2ccc3c(c2)CN(C2CCC(=O)NC2=O)C3=O)ccn1 (some centres unmarked) [Compound I-50dn]	–	–
13.8%	86.2%	> 25000 nM	Cc1cc(O)cc(C(=O)N2CCCC[C@H]2COc2ccc3c(c2)CN(C2CCC(=O)NC2=O)C3=O)c1 (some centres unmarked) [Compound I-72hi]	–	–
49.8%	50.2%	> 25000 nM	COC(=O)[C@@H]1CC[C@H](CN2CCCC[C@H]2COc2ccc3c(c2)CN(C2CCC(=O)NC2=O)C3=O)C1 (some centres unmarked) [Compound I-50cz]	–	–
13%	87%	> 25000 nM	O=C1CCC(N2Cc3cc(OC[C@@H]4CCCCN4C(=O)c4[nH]nc5c4CCCC5)ccc3C2=O)C(=O)N1 (some centres unmarked) [Compound I-72ix]	–	–
39.9%	60.1%	> 25000 nM	CCCc1cc(C(=O)N2CCCC[C@H]2COc2ccc3c(c2)CN(C2CCC(=O)NC2=O)C3=O)no1 (some centres unmarked) [Compound I-72au]	–	–
17.2%	82.8%	> 25000 nM	O=C1CCC(N2Cc3cc(OC[C@H]4CCCCN4Cc4ncccc4O)ccc3C2=O)C(=O)N1 (some centres unmarked) [Compound I-50ej]	–	–
99.1%	0.9%	4 nM	O=C1CCC(N2Cc3cc(OC[C@H]4CCCCN4Cc4ccc(Cn5ccnc5)cc4)ccc3C2=O)C(=O)N1 (some centres unmarked) [Compound I-50ek]	–	–
98%	2%	31 nM	O=C1CCC(N2Cc3cc(OC[C@H]4CCCCN4CC4CCN(Cc5ccccc5)CC4)ccc3C2=O)C(=O)N1 (some centres unmarked) [Compound I-50bg]	–	–
72.1%	27.9%	1200 nM	COC(=O)[C@@H]1CC[C@H](CN2CCCC[C@@H]2COc2ccc3c(c2)CN(C2CCC(=O)NC2=O)C3=O)C1 (some centres unmarked) [Compound I-50bq]	–	–

SMILES	Dmax [1]	remaining activity at up to 25 µM (HEK-293T, 293T cells)	DC50	Dmax (HEK-293T, read-out: % degradation of WIZ (100-Amax), 100 minus Amax, 293T cells)	remaining activity (HEK-293T, read-out: WIZ Amax, DMSO-normalized, curve-fitted percentage of WIZ-HiBit remaining at 25 uM, 293T cells)
CCN1CCN(c2ccc(F)cc2CN2CCCC[C@@H]2COc2ccc3c(c2)CN(C2CCC(=O)NC2=O)C3=O)CC1 (stereo partly drawn) [Compound I-169, 3-(5-(((R)-1-(2-(4-ethylpiperazin-1-yl)-5-fluorobenzyl)piperidin-2-yl)methoxy)-1-oxoisoindolin-2-yl)piperidine-2,6-dione]	–	–	34 nM	84.6%	15.4%
